Measured values from ChEMBL document CHEMBL1149228, “Analysis of structure-activity relationships for the 'B-region' of N-(3-acyloxy-2-benzylpropyl)-N(')-[4-(methylsulfonylamino)benzyl]thiourea analogues as vanilloid receptor antagonists: discovery of an N-hydroxythiourea analogue with potent analgesic activity” (Bioorg Med Chem Lett, 2004).

How the values were obtained:
[1] = biological target: T1, Transient receptor potential cation channel subfamily V member 1 (Rattus norvegicus, UniProt O35433); experiment: In vitro antagonist effect against 50 nM capsaicin-induced 45 [Ca2+] influx in vanilloid receptor expressing CHO cells (ineffective); type: functional, cell-based
T1 sequence (O35433 whole entry): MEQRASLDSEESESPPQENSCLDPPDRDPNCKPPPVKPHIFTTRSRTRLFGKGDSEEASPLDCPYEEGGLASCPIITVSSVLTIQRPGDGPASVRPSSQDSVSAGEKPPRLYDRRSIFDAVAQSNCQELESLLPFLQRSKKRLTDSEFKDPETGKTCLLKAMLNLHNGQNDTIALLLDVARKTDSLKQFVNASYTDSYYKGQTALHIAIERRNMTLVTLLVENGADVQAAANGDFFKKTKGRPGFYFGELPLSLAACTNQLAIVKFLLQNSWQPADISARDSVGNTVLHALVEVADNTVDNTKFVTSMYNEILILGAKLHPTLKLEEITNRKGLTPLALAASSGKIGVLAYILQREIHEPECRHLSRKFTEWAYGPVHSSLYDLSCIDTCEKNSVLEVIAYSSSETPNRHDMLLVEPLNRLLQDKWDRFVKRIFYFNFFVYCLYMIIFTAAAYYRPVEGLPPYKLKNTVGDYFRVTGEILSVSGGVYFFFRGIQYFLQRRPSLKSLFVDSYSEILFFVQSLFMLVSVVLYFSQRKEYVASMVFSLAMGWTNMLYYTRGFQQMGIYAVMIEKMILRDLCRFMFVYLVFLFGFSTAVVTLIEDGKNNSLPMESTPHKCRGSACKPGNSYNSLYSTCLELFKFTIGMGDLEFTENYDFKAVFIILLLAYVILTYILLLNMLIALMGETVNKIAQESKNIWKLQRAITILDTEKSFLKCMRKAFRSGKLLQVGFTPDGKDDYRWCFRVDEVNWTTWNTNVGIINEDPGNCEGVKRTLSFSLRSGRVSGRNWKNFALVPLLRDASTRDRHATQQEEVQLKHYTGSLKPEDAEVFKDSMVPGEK

[2] = biological target: T1, Transient receptor potential cation channel subfamily V member 1; experiment: Binding affinity towards rat vanilloid receptor subtype 1 expressed in CHO cells by [3H]RTX displacement.; type: cell-based
[3] = biological target: T1, Transient receptor potential cation channel subfamily V member 1; experiment: Agonist effect on 45 [Ca2+] influx in vanilloid receptor expressing CHO cells relative to maximal capsaicin (300 nM) response, weak effect at 30 µM
[4] = biological target: Transient receptor potential cation channel subfamily V member 1 (Rattus norvegicus) (UniProt O35433); experiment: Inhibition of […] nM capsaicin-induced 45 [Ca2+] influx in vanilloid receptor expressing CHO cells; type: functional, cell-based
Chain of Transient receptor potential cation channel subfamily V member 1 (Rattus norvegicus) (O35433 whole entry): as above

[5] = biological target: Transient receptor potential cation channel subfamily V member 1 (Rattus norvegicus) (UniProt O35433); experiment: Agonist-induced 45 [Ca2+] influx relative to 300 nM capsaicin in vanilloid receptor expressing CHO cells
[6] = biological target: T1, Transient receptor potential cation channel subfamily V member 1; experiment: In vitro antagonist effect against 50 nM capsaicin-induced 45 [Ca2+] influx in vanilloid receptor expressing CHO cells; type: functional, cell-based
[7] = biological target: T1, Transient receptor potential cation channel subfamily V member 1; experiment: Agonist effect on 45 [Ca2+] influx in vanilloid receptor expressing CHO cells relative to maximal capsaicin (300 nM) response (ineffective); type: functional, cell-based
[8] = biological target: T1, Transient receptor potential cation channel subfamily V member 1; experiment: Agonist effect on 45 [Ca2+] influx in vanilloid receptor expressing CHO cells relative to maximal capsaicin (300 nM) response; type: functional, cell-based
[9] = biological target: Transient receptor potential cation channel subfamily V member 1 (Rattus norvegicus) (UniProt O35433); experiment: Inhibition of […] nM capsaicin-induced 45 [Ca2+] uptake in vanilloid receptor expressing CHO cells; type: functional, cell-based

Row | IC50 [1] | Ki [2] | agonist efficacy [5] | EC50 ([3]; cho) | IC50 [6] | Structure (SMILES) | also measured
1 | Not Active | 199 nM |  |  |  | COc1cc(CO/C(S)=N/CC(COC(=O)C(C)(C)C)Cc2ccc(C)c(C)c2)ccc1NS(C)(=O)=O (centres undefined) | EC50 ([3]; read-out: EC50): 373 nM
2 |  |  |  |  | 7.8 nM | Cc1ccc(CC(CNC(=S)NCc2ccc(NS(C)(=O)=O)c(F)c2)COC(=O)C(C)(C)C)cc1C (centres undefined) | EC50 [7]: Not Active
3 |  | 74 nM | 7% | Partially active | 440 nM | CC(C)(C)C(=O)OCC(CNC(=O)Cc1ccc(NS(C)(=O)=O)c(F)c1)Cc1ccc(C(C)(C)C)cc1 (centres undefined) | inhibition [4]: 56%
4 |  | 220 nM |  |  | 757 nM | Cc1ccc(CC(COC(=O)C(C)(C)C)CN(O)/C(S)=N/Cc2ccc(NS(C)(=O)=O)cc2Cl)cc1C (centres undefined) | EC50 [7]: Not Active
5 |  | 405 nM | 13% | Partially active | 10100 nM | CC(C)(C)C(=O)OCC(Cc1ccc(C(C)(C)C)cc1)CN(O)/C(S)=N/Cc1ccc(NS(C)(=O)=O)c(F)c1 (centres undefined) | 
6 | Not Active |  |  |  |  | COc1cc(C/N=C(\S)NCC(COC(=O)C(C)(C)C)Cc2ccc(C)c(C)c2)ccc1NS(C)(=O)=O (centres undefined) | 

More lines, now with the values behind:

Row | Structure (SMILES) | IC50 [1] | Ki [2] | agonist efficacy [5] | EC50 ([3]; cho) | IC50 [6] | also measured
7 | Cc1ccc(CC(CNC(=O)Cc2ccc(NS(C)(=O)=O)c(F)c2)COC(=O)C(C)(C)C)cc1C (centres undefined) |  |  | 10% | Partially active |  | inhibition [4]: 65%
8 | Cc1ccc(CC(COC(=O)C(C)(C)C)CN(O)/C(S)=N/Cc2ccc(NS(C)(=O)=O)cc2)cc1C (centres undefined) |  |  | 12% | Partially active |  | 
9 | Cc1ccc(CC(CNC(=O)Cc2ccc(NS(C)(=O)=O)cc2)COC(=O)C(C)(C)C)cc1C (centres undefined) |  | 500 nM | 5.6% | Partially active | 460 nM | 
10 | Cc1ccc(CC(CNC(=S)N(O)Cc2ccc(NS(C)(=O)=O)cc2)COC(=O)C(C)(C)C)cc1C (centres undefined) |  |  | 12% | Partially active | 331 nM | 
11 | Cc1ccc(CC(CNC(=S)OCc2ccc(NS(C)(=O)=O)c(F)c2)COC(=O)C(C)(C)C)cc1C (centres undefined) |  | 210 nM | 7.5% | Partially active | 170 nM | 
12 | COc1cc(C/N=C(\S)N(O)CC(COC(=O)C(C)(C)C)Cc2ccc(C)c(C)c2)ccc1NS(C)(=O)=O (centres undefined) | Not Active | 396 nM |  |  |  | EC50 [8]: 809 nM
13 | COc1cc(CC(=O)NCC(COC(=O)C(C)(C)C)Cc2ccc(C)c(C)c2)ccc1NS(C)(=O)=O (centres undefined) | Not Active | 430 nM |  |  |  | EC50 [8]: 244 nM
14 | Cc1ccc(CC(CN/C(S)=N/Cc2ccc(NS(C)(=O)=O)cc2)COC(=O)C(C)(C)C)cc1C (centres undefined) |  |  |  | Partially active | 67 nM | 
15 | Cc1ccc(CC(CNC(=S)N(O)Cc2ccc(NS(C)(=O)=O)c(F)c2)COC(=O)C(C)(C)C)cc1C (centres undefined) | Not Active |  |  | Partially active |  | 
16 | Cc1ccc(CC(COC(=O)C(C)(C)C)CN(O)/C(S)=N/Cc2ccc(NS(C)(=O)=O)cc2F)cc1C (centres undefined) | Not Active |  |  | Partially active |  | 
17 | CC(C)(C)C(=O)OCC(CNC(=S)NCc1ccc(NS(C)(=O)=O)c(F)c1)Cc1ccc(C(C)(C)C)cc1 (centres undefined) |  | 22.6 nM | 5% | Partially active | 52 nM | 
18 | Cc1ccc(CC(CNC(=S)OCc2ccc(NS(C)(=O)=O)cc2)COC(=O)C(C)(C)C)cc1C (centres undefined) |  | 336 nM | 11% | Partially active | 440 nM | inhibition [9]: 79%
19 | Cc1ccc(CC(COC(=O)C(C)(C)C)CN(O)/C(S)=N/Cc2ccc(NS(C)(=O)=O)c(F)c2)cc1C (centres undefined) |  |  |  |  |  | EC50 [7]: Not Active
20 | Cc1ccc(CC(COC(=O)Cc2ccc(NS(C)(=O)=O)cc2)COC(=O)C(C)(C)C)cc1C (centres undefined) |  | 1980 nM |  |  | 3600 nM | EC50 [7]: Not Active
